The target in data set [1] is T1, human calcitonin receptor (hCTR2) (Homo sapiens, UniProt P30988).
T1 construct: expressed in transfected cells
T1 sequence (P30988 25-474): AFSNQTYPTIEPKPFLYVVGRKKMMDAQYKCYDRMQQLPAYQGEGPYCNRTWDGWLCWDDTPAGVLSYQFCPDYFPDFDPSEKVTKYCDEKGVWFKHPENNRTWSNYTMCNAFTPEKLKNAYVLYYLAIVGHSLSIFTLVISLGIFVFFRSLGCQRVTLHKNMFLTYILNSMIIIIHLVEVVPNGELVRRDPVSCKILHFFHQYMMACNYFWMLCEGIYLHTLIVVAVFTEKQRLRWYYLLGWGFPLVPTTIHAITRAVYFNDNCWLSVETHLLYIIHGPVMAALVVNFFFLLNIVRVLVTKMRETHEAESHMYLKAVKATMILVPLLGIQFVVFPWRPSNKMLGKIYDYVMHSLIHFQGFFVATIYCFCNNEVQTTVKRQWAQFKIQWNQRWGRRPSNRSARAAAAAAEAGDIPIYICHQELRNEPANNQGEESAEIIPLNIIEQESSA
In words: hCTR2 assay: induction of cAMP (AlphaScreen cAMP Assay kit) in COS7 cells expressing hCTR2. It is filed as cell-based. Conditions: cAMP induction in COS7 cells expressing hCTR2; average of a minimum of 3 determinations; read-out: hCTR2 EC50. The essentials: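 Functional agonism is measured as cAMP accumulation in a COS7 line stably transfected with hCTR2, lacking endogenous RAMPs. Peptides act for 15 min at 37° C with IBMX present, and curves are fitted with a 4-parameter logistic model.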
(In general: In Alpha technology, singlet oxygen from a donor bead excites a nearby acceptor bead.)

A short description of data set [2]: Solubility assessment (turbidity absorbance at 325 nm). It is filed as physicochemical. Conditions: stock 2 mg/ml diluted 1:1, ambient temperature (typically 25°C), n=1; for Solubility, Acetate buffer pH 4: 100 mM acetate buffer pH 4.0; for Solubility, Acetate buffer pH 5: 100 mM acetate buffer pH 5.0; for Solubility, Histidine buffer pH 6: 100 mM histidine buffer pH 6.0; for Solubility, Histidine buffer pH 7: 100 mM histidine buffer pH 7.0; for Solubility, Phosphate buffer pH 6: 100 mM phosphate buffer pH 6.0; for Solubility, Phosphate buffer pH 7: 100 mM phosphate buffer pH 7.0; for Solubility, Phosphate buffer pH 7.5: 100 mM phosphate buffer pH7.5. Summed up:
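Peptide stock (2 mg/ml) in water acidified to pH 2.5 with HCl was diluted 1:1 into 100 mM acetate (pH 4.0, 5.0), histidine (pH 6.0, 7.0) or phosphate (pH 6.0, 7.0, 7.5) buffer. A280 and A325 were read at about 25°C, n=1. A325 ≤ 0.02 meant solubility ≥ 1 mg/ml.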

Data set [3] has as its target T2, human amylin receptor 3 (hAMYR3) consisting of hCTR2 co-expressed with human Receptor Activity Modifying Protein 3 (hRAMP3) (Homo sapiens, UniProt O60896+P30988).
T2 construct: expressed in transfected cells
T2 sequence (P30988 25-474): T1 sequence (P30988 25-474)
T2 sequence (O60896 24-148 partner): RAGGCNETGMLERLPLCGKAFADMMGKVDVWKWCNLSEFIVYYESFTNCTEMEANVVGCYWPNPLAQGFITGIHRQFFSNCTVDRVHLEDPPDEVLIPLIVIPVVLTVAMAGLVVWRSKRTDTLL
In words: hAMYR3 assay: induction of cAMP (AlphaScreen cAMP Assay kit) in COS7 cells expressing hAMYR3. Format: cell-based. The essentials:
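Stable COS7 clone co-expressing hCTR2 and hRAMP3, stimulated 15 min at 37° C with increasing peptide in Tyrode buffer pH 7.4 with 100 µM IBMX and 0.1% casein. cAMP measured by AlphaScreen after lysis; EC50 and % efficacy versus pramlintide from 4PL fit.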

Setting [4] is: cAMP induction in COS7 cells expressing hAMYR3, average of a minimum of 3 determinations, read-out: hAMY R3 EC50.

As usually defined, the EC50 is the concentration at which the effect is half-maximal.

Read-outs that look alike come from different tables or passages of the source. Numbered stars: 1 amine (or outer) side, 2 acyl side, 3 side chain; on linkers, the order of the positions; unused ones are H or OH. Bridge positions count the residues as written; N and C are the ends. Square brackets hold non-standard residues; d marks the D form. Peptide text beside a SMILES is read from it. * marks the point of attachment. C20 diacid = O=C(O)CCCCCCCCCCCCCCCCCCC(=O)*; γGlu = O=C(O)[C@H](CCC(=O)[*:2])N[*:1]; NMeI = CC[C@H](C)[C@H](NC)C(=O)O; Sar = CNCC(=O)O

For the molecule `CC[C@H](C)[C@@H](C(=O)N[C@@H](CC(C)C)C(=O)N[C@@H](CO)C(=O)N[C@@H](CO)C(=O)N[C@H](C(=O)N[C@@H](CCC(=O)O)C(=O)N[C@H](C(=O)NCC(=O)N[C@@H](CO)C(=O)N[C@@H](CCC(=O)O)C(=O)N[C@H](C(=O)N1CCC[C@H]1C(N)=O)[C@@H](C)O)C(C)C)[C@@H](C)O)N(C)C(=O)[C@H](C)NC(=O)CN(C)C(=O)[C@H](Cc1ccccc1)NC(=O)[C@H](CO)NC(=O)[C@H](CO)NC(=O)[C@H](CO)NC(=O)[C@H](CO)NC(=O)[C@H](CCCNC(=N)N)NC(=O)[C@H](Cc1c[nH]cn1)NC(=O)[C@H](CC(C)C)NC(=O)[C@H](Cc1ccccc1)NC(=O)[C@H](CCC(=O)O)NC(=O)[C@H](C)NC(=O)[C@H](CC(C)C)NC(=O)[C@H](CCCNC(=N)N)NC(=O)CNC(=O)[C@@H](NC(=O)[C@H](C)NC(=O)[C@@H]1CSSC[C@H](NC(=O)[C@H](CCCNC(=N)N)NC(=O)CC[C@H](NC(=O)CCCCCCCCCCCCCCCCCCC(=O)O)C(=O)O)C(=O)NCC(=O)N[C@@H]([C@@H](C)O)C(=O)N[C@@H](C)C(=O)N[C@@H]([C@@H](C)O)C(=O)N1)[C@@H](C)O` [Compound 131, [19CD]-isoGlu-RC()GTATC()ATGRLAEFLHRSSSSF-Gly(Me)-A-Ile(Me)-LSSTEVGSETP-NH2] ({C20 diacid-γGlu}-RCGTATCATGRLAEFLHRSSSSF[Sar]A[NMeI]LSSTEVGSETP-NH2; disulfide 2-7), the EC50 in data set [1] was found to be 0.1 nM. In data set [2], the “Solubility, Acetate buffer pH 4” value is “SS (SS indicates solubility ≥ 1mg/ml)”; the “Solubility, Acetate buffer pH 5” value is recorded as “SS (SS indicates solubility ≥ 1mg/ml)”; the “Solubility, Histidine buffer pH 6” value is recorded as “SS (SS indicates solubility ≥ 1mg/ml)”; the “Solubility, Histidine buffer pH 7” value is recorded as “SS (SS indicates solubility ≥ 1mg/ml)”. Further, in data set [2], the “Solubility, Phosphate buffer pH 6” value is recorded as “SS (SS indicates solubility ≥ 1mg/ml)”; the “Solubility, Phosphate buffer pH 7” value is on record as “SS (SS indicates solubility ≥ 1mg/ml)”; the “Solubility, Phosphate buffer pH 7.5” value is “SS (SS indicates solubility ≥ 1mg/ml)”. In addition, the EC50 in data set [3] was 0.18 nM.
Consider `CC[C@H](C)[C@@H](C(=O)N[C@@H](CC(C)C)C(=O)N[C@@H](CO)C(=O)N[C@@H](CO)C(=O)N[C@H](C(=O)N[C@@H](CCC(=O)O)C(=O)N[C@H](C(=O)NCC(=O)N[C@@H](CO)C(=O)N[C@@H](CCC(=O)O)C(=O)N[C@H](C(=O)N1CCC[C@H]1C(N)=O)[C@@H](C)O)C(C)C)[C@@H](C)O)N(C)C(=O)[C@H](C)NC(=O)CN(C)C(=O)[C@H](Cc1ccccc1)NC(=O)[C@H](CO)NC(=O)[C@H](CO)NC(=O)[C@H](CO)NC(=O)[C@H](CO)NC(=O)[C@H](CCCNC(=N)N)NC(=O)[C@H](Cc1c[nH]cn1)NC(=O)[C@H](CC(C)C)NC(=O)[C@H](Cc1ccccc1)NC(=O)[C@H](CCC(=O)O)NC(=O)[C@H](C)NC(=O)[C@H](CC(C)C)NC(=O)[C@H](CCCNC(=N)N)NC(=O)CNC(=O)[C@@H](NC(=O)[C@H](C)NC(=O)[C@@H]1CSSC[C@H](NC(=O)[C@H](CCCNC(=N)N)NC(=O)CC[C@H](NC(=O)CCCCCCCCCCCCCCCCCCC(=O)O)C(=O)O)C(=O)N[C@@H](CO)C(=O)N[C@@H]([C@@H](C)O)C(=O)N[C@@H](C)C(=O)N[C@@H]([C@@H](C)O)C(=O)N1)[C@@H](C)O` [Compound 132, [19CD]-isoGlu-RC()STATC()ATGRLAEFLHRSSSSF-Gly(Me)-A-Ile(Me)-LSSTEVGSETP-NH2] ({C20 diacid-γGlu}-RCSTATCATGRLAEFLHRSSSSF[Sar]A[NMeI]LSSTEVGSETP-NH2; disulfide 2-7), for which the EC50 in data set [1] was 0.22 nM. Besides, in data set [2], the “Solubility, Acetate buffer pH 4” value is given as “SS (SS indicates solubility ≥ 1mg/ml)”; the “Solubility, Acetate buffer pH 5” value is recorded as “SS (SS indicates solubility ≥ 1mg/ml)”; the “Solubility, Histidine buffer pH 6” value is on record as “SS (SS indicates solubility ≥ 1mg/ml)”; the “Solubility, Histidine buffer pH 7” value was “SS (SS indicates solubility ≥ 1mg/ml)”. In data set [2], the “Solubility, Phosphate buffer pH 6” value is listed as “SS (SS indicates solubility ≥ 1mg/ml)”; the “Solubility, Phosphate buffer pH 7” value is “SS (SS indicates solubility ≥ 1mg/ml)”; the “Solubility, Phosphate buffer pH 7.5” value is “SS (SS indicates solubility ≥ 1mg/ml)”. Further, the EC50 in data set [3] (setting [4]) came to 0.35 nM.
On to `CC[C@H](C)[C@@H](C(=O)N[C@@H](CC(C)C)C(=O)N[C@@H](CO)C(=O)N[C@@H](CO)C(=O)N[C@H](C(=O)N[C@@H](CCC(=O)O)C(=O)N[C@H](C(=O)NCC(=O)N[C@@H](CO)C(=O)N[C@@H](CCC(=O)O)C(=O)N[C@H](C(=O)N1CCC[C@H]1C(N)=O)[C@@H](C)O)C(C)C)[C@@H](C)O)N(C)C(=O)[C@H](C)NC(=O)CN(C)C(=O)[C@H](Cc1ccccc1)NC(=O)[C@H](CO)NC(=O)[C@H](CO)NC(=O)[C@H](CO)NC(=O)[C@H](CO)NC(=O)[C@H](CCCNC(=N)N)NC(=O)[C@H](Cc1c[nH]cn1)NC(=O)[C@H](CC(C)C)NC(=O)[C@H](Cc1ccccc1)NC(=O)[C@H](CCC(=O)O)NC(=O)[C@H](C)NC(=O)[C@H](CC(C)C)NC(=O)[C@H](CCCNC(=N)N)NC(=O)[C@H](CO)NC(=O)[C@@H](NC(=O)[C@H](C)NC(=O)[C@@H]1CSSC[C@H](NC(=O)[C@H](CCCNC(=N)N)NC(=O)CC[C@H](NC(=O)CCCCCCCCCCCCCCCCCCC(=O)O)C(=O)O)C(=O)N[C@@H](CO)C(=O)N[C@@H]([C@@H](C)O)C(=O)N[C@@H](C)C(=O)N[C@@H]([C@@H](C)O)C(=O)N1)[C@@H](C)O` [Compound 133, [19CD]-isoGlu-RC()STATC()ATSRLAEFLHRSSSSF-Gly(Me)-A-Ile(Me)-LSSTEVGSETP-NH2] ({C20 diacid-γGlu}-RCSTATCATSRLAEFLHRSSSSF[Sar]A[NMeI]LSSTEVGSETP-NH2; disulfide 2-7), for which the EC50 in data set [1] is 0.3 nM. In addition, in data set [2], the “Solubility, Acetate buffer pH 4” value is “SS (SS indicates solubility ≥ 1mg/ml)”; the “Solubility, Acetate buffer pH 5” value is “SS (SS indicates solubility ≥ 1mg/ml)”; the “Solubility, Histidine buffer pH 6” value was “SS (SS indicates solubility ≥ 1mg/ml)”; the “Solubility, Histidine buffer pH 7” value is recorded as “SS (SS indicates solubility ≥ 1mg/ml)”. Further, in data set [2], the “Solubility, Phosphate buffer pH 6” value is on record as “SS (SS indicates solubility ≥ 1mg/ml)”; the “Solubility, Phosphate buffer pH 7” value was “SS (SS indicates solubility ≥ 1mg/ml)”; the “Solubility, Phosphate buffer pH 7.5” value was “SS (SS indicates solubility ≥ 1mg/ml)”. Besides, in data set [3] (setting [4]), the EC50 was found to be 0.36 nM.
